From patent US20120040965A1, “SUBSTITUTED AZEPINO[4,3-B]INDOLES, PHARMACOLOGICAL COMPOSITION AND A METHOD FOR THE PRODUCTION AND USE THEREOF” (priority 2006, published 2012)

Assays:
[1] = tested on: male mice of C57BL/6 line; assay: Test of familiar object recognition in a novel localization (spatial memory); assay type: in vivo; settings: for % of time investigating the object in a novel localization / % of time investigating the object in familiar localization: testing 48 hr after training; for effect on memory: doses of 1 mg/kg and 5 mg/kg
Source text: Testing of compounds of general formula 1 on spatial memory in test of novel object recognition. Test of novel object recognition is based on the fact that rats and mice investigate spontaneously a novel object or novel object localization (NL) for longer period of time than the known object or known object localization (KL). The test was tried on rats [A. Ennaceur and J. Delacour, A new one-trial test for neurobiological studies of memory in rats. 1: behavioral data. Behay. Brain Res. 1988, 31, 47-59; J. C. Dodart, C. Mathis and A. Ungerer, Scopolamine-induced deficits in a two-trial object recognition task in mice. NeuroReport 1997, 8, 1173-1178; C. Messier, Object recognition in mice: improvement of memory by glucose. Neurobiol. Learn. Mem. 1997, 67, 172-175; C. Pittenger, Y. Y. Huang, R. F. Paletzki, R. Bourtchouladze, H. Scanlin, S. Vronskaya et al., Reversible inhibition of CREB/ATF transcription factors in region CA1 of the dorsal hippocampus disrupts hippocampus-dependent spatial memory. Neuron 2002, 34, 447-462; A. E. Ryabinin, M. N. Miller and S. Durrant, Effects of acute alcohol administration on object recognition learning in C57BL/6J mice. Pharmacol. Biochem. Behay. 2002, 71, 307-312; F. Sargolini, P. Roullet, A. Oliverio and A. Mele, Effects of intra-accumbens focal administrations of glutamate antagonists on object recognition memory in mice. Behay. Brain Res. 2003, 138, 153-163].
Test of novel object recognition consists of two tests. The first one is novel object localization test use for examination of spatial memory, and the second one—test of novel object recognition for exploring non spatial memory [D. Gaffan, Amnesia for complex naturalistic scenes and for objects following formix transaction in the Rhesus monkey. Eur. J. Neurosci. 1992, 4, 381-388; B. Kolb, K. Buhrmann, R. McDonald and R. Sutherland, Dissociation of the medial prefrontal, posterior parietal, and posterior temporal cortex, for spatial navigation and recognition memory in the rat. Cereb. Cortex 1994, 6, 664-680; T. Steckler, W. H. I. M. Drinkenburgh, A. Sahgal and J. P. Aggleton, Recognition memory in rats. I. Concepts and classification. Prog. Neurobiol. 1998, 54, 289-311. T. Steckler, W. H. I. M. Drinkenburgh, A. Sahgal and J. P. Aggleton, Recognition memory in rats II. Neuroanatomical substrates. Prog. Neurobiol. 1998, 54, 313-332].
Methods of Investigation.
Subjects were male mice of 3-5 month age of C57BL/6 line, weighing 20-24 g. Animals were housed 5 per cage at light mode 12×12 hr with a light part from 8 till 20 o'clock with water and food available. Experimental setup was made of non-transparent white organic glass measuring 48×38×30 cm. As objects of recognition brown glass bottles measuring 2.7 cm diameter and 5.5 cm high were used. The cage and objects of recognition were wiped with 85% alcohol 2-3 min prior placing an animal in the cage. Animals were always placed in the cage centre. 40 Mg of compound of general formula 1 were dissolved in 0.2 ml of DMSO with the following addition of distilled water up to desired concentration. Solutions were prepared just before a trial. All experiments were carried out on two groups of 10 mice each. Animals were injected in dose 1 and 5 mg/kg in volume 0.05 ml on 10 g of animal weight one hour before the trial. The control animals were injected with an equal volume of distilled water.
Acquaintance with the behavioural cage. At the first test day mice were placed into a research chamber and allowed to acclimate for 20-30 min. After that each animal was placed for 10 minutes into an empty, previously treated with alcohol behavioural chamber for acclimation. Then the animal was placed into the cage and taken back to vivarium.
Training. Next day the same mice were placed into a behavioural chamber and allowed to explore for 20-30 min; after acclimation animals were injected intragastrically by the solution of tested compound. […]

[2] = tested on: male mice of C57BL/6 line; assay: Acute toxicity in mice; assay type: in vivo; settings: for animals' death: 100 mg/kg
Description: Research of acute toxicity. Acute toxicity of the proposed compounds was determined in male mice of C57BL/6 line. […] Observation time was 14 days.

[3] = dose 1 mg/kg intragastrically one hour before training
[4] = dose 5 mg/kg intragastrically one hour before training

Structure (SMILES) | % of time investigating the object in a novel localization [1, 3] | % of time investigating the object in familiar localization [1, 3] | % of time investigating the object in a novel localization [1, 4] | % of time investigating the object in familiar localization [1, 4] | effect on memory [1] | duration of sedative action ([2]; doses 100 and 50 mg/kg, mice) | onset of sedative action after injection ([2]; doses 100 and 50 mg/kg, mice) | sedative action ([2]; doses 100 and 50 mg/kg, mice) | sedative action ([2]; doses of 1 and 5 mg/kg, mice) | animals' death ([2]; unitary introduction into stomach, 14 days of watching) | animals' death ([2]; mouse, in vivo)
Cc1ccc2c(c1)[C@@H]1CN(C)CCC[C@H]1N2Cc1ccccn1.Cl.Cl (relative stereo) [1.2.6(4)HCl, trans-2,9-dimethyl-6-[(pyridin-2-yl)methyl]-1,2,3,4,5,5a,6,10b-octahydroazepino[4,3-b]indole dihydrochloride] | 49.11±3.3% | 41.3±9.7% | 60.1±9.0% | 39.9±9.0% | stimulating effect on memory | > 24 h | 5 to 10 min | pronounced sedative action | not observed | do not cause animals' death | –
Cc1ccc2c(c1)c1c(n2CCc2ccncc2)CCCN(C)C1.Cl.Cl [1.1.5(3)HCl, 2,9-dimethyl-6-[2-(pyridin-4-yl)ethyl]-1,2,3,4,5,6-hexahydroazepino[4,3-b]indole dihydrochloride] | 55.5±6.2% | 44.5±6.2% | 59.9±5.9% | 40.1±5.9% | stimulating effect on memory | – | – | – | – | – | do not cause animals' death
Cc1ccc2c(c1)c1c(n2CCc2ccc(C)nc2)CCCN(C)C1.Cl.Cl [1.1.5(2)HCl, 2,9-dimethyl-6-[2-(6-methylpyridin-3-yl)ethyl]-1,2,3,4,5,6-hexahydroazepino[4,3-b]indole dihydrochloride] | 58.7±9.7% | 41.3±9.7% | 58.8±11.1% | 41.2±11.1% | stimulating effect on memory | – | – | – | – | – | do not cause animals' death
